Test results: patent US7932387B2, “Crystalline forms of rosuvastatin calcium salt” (BASF SE, priority 2005, dated 2011)
Counter-ions that a name gives are not always drawn.

Tests used:
[1] = Solubility in water and in physiological liquids (comparison of solid forms); format: physicochemical; details: compared with form A; qualitative statement
[2] = Chemical and physical stability (comparison of solid forms); format: physicochemical; details: compared with the amorphous form; qualitative statement

## CC(C)c1nc(N(C)S(C)(=O)=O)nc(-c2ccc(F)cc2)c1/C=C/[C@@H](O)C[C@@H](O)CC(=O)O [Form B, bis[(E)-7-[4-(4-fluorophenyl)-6-isopropyl-2-[methyl(methylsulfonyl)amino]pyrimidin-5-yl](3R,5S)-3,5-dihydroxyhept-6-enoic acid] calcium salt]
[1]
  solubility in water and in physiological liquids: better soluble in water and in physiological liquids than form A
[2]
  chemical and physical stability: chemically and physically more stable than the amorphous form
